Test results reported in patent US20170129911A1, “COMPLEXES COMPRISING A PLATINUM COMPOUND AND AN IMMUNE CHECKPOINT INHIBITOR AND RELATED METHODS” (Massachusetts Institute of Technology, priority 2015, published 2017).

How the values were obtained:
[1] = test system: A2780/CP70 human ovarian cancer cells; test: Cytotoxicity MTT assay, A2780/CP70; format: cell-based; conditions: cisplatin-sensitive and resistant ovarian cancer cell lines
Description: Ovarian carcinoma cells, NIH:OVCAR3, A2780, A2780/CP70, and SKOV3 were purchased from the American Type Culture Collection (ATCC, Rockville Md.). Peripheral blood mononuclear cells (PBMCs) of two different donors were obtained from Zen Bio Inc. (Research Triangle, NC). Cancer cell lines were maintained in Roswell Park Memorial Institute (RPMI) medium (glutamine-free supplemented with 10% fetal bovine serum, Atlanta Biologics, Atlanta Ga.) and 1% penicillin/streptomycin. PBMCs were thawed in specialized medium (10% […], 40% RPMI and 50% FBS) and subsequently cultured in RPMI containing 20% FBS. For T-cell proliferation experiments, PBMCs were stimulated by the addition of phytohemagglutinin (PHA-P). All cells were grown at 310 K in a humidified atmosphere containing 5% CO2. D-1-methyltryptophan, L-tryptophan and L-kynurenine were purchased from Sigma Aldrich.
The colorimetric MTT assay was used to determine the toxicity of 1, 2, and cisplatin. Cells (2×10^3) were seeded in each well of a 96-well plate. […] Cisplatin was prepared as a 5 mM solution in PBS and diluted using media. 1, 2 and C16—Pt-Suc-NHC2H4OH were prepared as 10 mM solution in DMSO and diluted using media. The final volume amount of DMSO in each well was 0.5%, and which was present in the untreated control as well. Cells co-incubated with cisplatin and (D)-1-MT were first pre-treated with 1 mM (D)-1-MT. […] The RPMI/MTT, mixture was aspirated and 100 μL of DMSO was added to dissolve the resulting purple formazan crystals. The absorbance of the solution wells was read at 570 and 650 nm. Absorbance values were normalized to DMSO-containing control wells and plotted as concentration of test compound versus % cell viability. IC50 values were interpolated from the resulting dose dependent curves. The reported IC50 values are the average of at least three independent experiments, each of which consisted of six replicates per concentration level.

[2] = test system: human IDO in SKOV3 cells; test: Immunoblotting and qRT-PCR of IDO expression in SKOV3 cells; format: cell-based; conditions: immunoblotting and qRT-PCR
Experimental: Total RNA was isolated with the Qiagen RNAeasy RNA isolation kit (Hilden, Germany) and cDNA was synthesized with the Applied Biosystems reverse-transcription-kit (Foster City, Calif., USA). qRT-PCR was performed in a Light cycler 480 II thermo cycler with SYBR Green PCR Mastermix (Roche). All primers were separated by at least one intron on the genomic DNA to exclude its amplification. PCR reactions were checked by including no-RT controls, by omission of templates, and by melting curves. Standard curves were generated for each gene. Relative quantification of gene expression was determined by comparison of threshold values. All samples were analyzed in duplicate at two different dilutions. All results were normalized to GAPDH.
Cells were washed with PBS, scraped into SDS-PAGE loading buffer (64 mM Tris-HCl (pH 6.8)/9.6% glycerol/2% SDS/5% β-mercaptoethanol/0.01% Bromophenol Blue), and incubated at 95° C. for 10 min. […] Membranes were blocked in 5% (w/v) bovine serum albumin in PBST (PBS/0.1% Tween 20) and incubated with the appropriate primary antibodies (Cell Signalling Technology and Santa Cruz). After incubation with horseradish peroxidase-conjugated secondary antibodies (Cell Signalling Technology), 1:1000, immuno complexes were detected with the ECL detection reagent (BioRad) and analyzed using UVP biospectrum imaging system fitted with a chemiluminescence filter.

[3] = test system: SKOV3 cells; test: Annexin V/sytox green apoptosis dead cell assay; format: cell-based, human; conditions: 72 h of treatment
Description: Therapeutic nanoparticles (NPs) have been widely investigated for their potential to enhance cancer treatment. The chemical structure of 2 bears both hydrophilic (1-D-MT) and hydrophobic (hexadecyl isocyanate) axial ligands, conferring amphiphilic character to the molecule. In some cases, the hexadecyl isocyanate axial ligand facilitate non-covalent binding to human serum albumin, protecting the Pt(IV) center from premature reduction in blood. In the presence of the biodegradable block copolymer, poly(lactic-co-glycolic acid)-polyethylene glycol (PLGA-PEG), 2 readily self-assembles into NPs suitable for preclinical studies (FIG. 5A). […] Having obtained the nanoparticles, the ability of 2 and its NP to induce apoptosis was investigated. Translocation of phosphatidylserine residues to the exterior is a characteristic of apoptotic cells, which have a compromised cell membrane, and can be detected by annexin V. Using a dual staining annexin V/sytox green apoptosis dead cell assay, we examined the apoptotic behavior of SKOV3 cells after 72 h of treatment with 2 and its NP by flow cytometry.

[4] = In vivo blood stability in mice
Experimental: The hydrophobic complex 2 was extracted with octanol, diluted, and the Pt concentration was determined by GFAAS.
The octanol extracts were diluted with methanol and analysed by GFAAS.

[5] = Whole human blood stability test; format: in vitro ADME
Experimental: To a volume of 0.8 mL fresh whole human blood (Innovative Research, Novi, Mich.) was added 24 μL of a DMSO solution of 2 (2.0 mM), resulting in a final concentration of 60 μM. After 5 sec of vortexing, a 100 μL aliquot of the blood sample (0 h time point) was immediately transferred to a new tube containing 300 μL of octanol, and the remaining […] of blood was incubated at 37° C. with rotation (1100 rpm). The blood-octanol mixture was vortexed for 2 min at R.T. and then centrifuged to separate the phases. The isolated octanol extract was diluted with methanol for GFAAS measurement. At varying time points (1 h, 2 h, 3 h, 5 h, and 7 h), a 100 μL aliquot was removed from the incubating blood and extracted as described above. For the 7 h sample, analytical HPLC was employed to confirm the integrity of the Pt compound. A standard of 2 and an octanol extract from blank whole human blood were used for comparison.

[6] = Solubility in PBS; format: physicochemical
[7] = target: HSA (Homo sapiens, UniProt P02768); test: HSA binding (FPLC, GFAAS, ESI-MS); conditions: ESI mass-spectrometric analysis
[8] = test system: Eμ-Myc lymphoma cells; test: RNAi signature (GFP competition) assay; conditions: LD80-90 dose, 72 h
[9] = test system: SKOV3 cells; test: Cell cycle analysis by flow cytometry (DNA content)
[10] = Water-octanol partition coefficient (Log P), shake-flask method and GFAAS; conditions: octanol/PBS

HSA, sequence (P02768 25-609): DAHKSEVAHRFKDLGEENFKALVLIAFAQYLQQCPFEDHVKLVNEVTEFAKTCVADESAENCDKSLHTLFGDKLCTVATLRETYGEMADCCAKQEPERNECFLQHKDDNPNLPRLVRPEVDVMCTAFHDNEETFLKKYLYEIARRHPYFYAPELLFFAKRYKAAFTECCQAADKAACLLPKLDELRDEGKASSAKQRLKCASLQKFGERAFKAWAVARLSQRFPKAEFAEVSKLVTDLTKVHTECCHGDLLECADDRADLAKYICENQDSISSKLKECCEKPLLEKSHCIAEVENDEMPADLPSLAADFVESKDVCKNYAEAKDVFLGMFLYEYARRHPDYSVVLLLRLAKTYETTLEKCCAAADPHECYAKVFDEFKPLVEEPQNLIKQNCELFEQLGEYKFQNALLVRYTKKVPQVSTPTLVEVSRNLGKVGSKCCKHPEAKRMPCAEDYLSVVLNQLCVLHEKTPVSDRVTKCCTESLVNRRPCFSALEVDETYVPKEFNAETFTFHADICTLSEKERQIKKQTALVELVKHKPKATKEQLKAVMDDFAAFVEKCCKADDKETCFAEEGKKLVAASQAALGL

Compound: CCCCCCCCCCCCCCCCNC(=O)[O][Pt]([NH2])([NH2])([Cl])([Cl])[O]C(=O)CCC(=O)NCCOC(=O)[C@H](N)Cc1cn(C)c2ccccc12 (mixture of isomers) [Compound 2, cis,cis,trans-[Pt(NH3)2Cl2(O2CC2H4OCNHC2H4O2C-D-1MT)(O2CNHC16H33)]]
- cross-resistance with cisplatin [1]: no cross-resistance with cisplatin
- IDO protein expression (IDO inhibition) [2]: effectively block IDO protein expression
- induction of apoptosis [3]: induced large populations of SKOV3 cells to undergo apoptosis
- Pt concentration in blood (octanol extract) ([4]; 24 h after i.v. NP formulation of 2, 8 mg/kg): non-detectable levels
- half-life ([4]; female, Balb/c, mouse, whole blood, iv, 8 mg/kg): ~1 h
- half-life at 60 µM ([5]; fresh whole human blood, whole human blood, 60 μM, 37° C., read-out: t1/2 in human blood (converted)): 2.2 h
- stability in blood ([5]; summary statement): stable in blood
- solubility in PBS [6]: low solubility
- binding to HSA [7]: binds HSA
- RNAi signature [8]: strong p53 and Chk2 shRNA enrichment
- cell cycle arrest phase [9]: cell cycle block at G1 phase
- logP at 3 h [10]: 1.35 ± 0.26
